Results on four compounds are retold here after publication PMC3109722 (Journal of medicinal chemistry, 2011).

“Also recorded” adds a separate entry of the source.

In assay [1] the target is T1, L3MBTL3 (Homo sapiens, UniProt Q96JM7).
T1 sequence (Q96JM7 225-555 limits assumed): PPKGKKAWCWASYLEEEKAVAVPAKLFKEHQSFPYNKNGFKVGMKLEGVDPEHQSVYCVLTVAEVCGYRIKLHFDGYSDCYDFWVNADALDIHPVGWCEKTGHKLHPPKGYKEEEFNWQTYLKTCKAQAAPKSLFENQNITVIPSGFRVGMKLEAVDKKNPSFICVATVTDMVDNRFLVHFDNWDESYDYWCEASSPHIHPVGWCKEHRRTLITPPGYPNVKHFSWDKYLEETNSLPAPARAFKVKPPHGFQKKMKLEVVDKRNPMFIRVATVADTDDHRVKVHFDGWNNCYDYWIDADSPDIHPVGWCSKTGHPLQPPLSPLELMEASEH
Nature of the assay: AlphaScreen histone peptide competition, L3MBTL3. Type of assay: binding. Particulars: average of at least two independent trials ± SD. (In general: Alpha assays give light when donor and acceptor beads are brought close together.)

For assay [2], the target named is T2, PHF13 (Homo sapiens, UniProt Q86YI8).
T2 sequence (Q86YI8 232-280 limits assumed): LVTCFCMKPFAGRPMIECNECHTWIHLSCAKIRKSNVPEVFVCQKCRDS
Nature of the assay: AlphaScreen histone peptide competition, PHF13. The class given is binding. Particulars: average of at least two independent trials ± SD.

Assay [3] addresses T1, L3MBTL3. Nature of the assay: ITC binding to L3MBTL3. Particulars: data not shown.
Assay [4] addresses T3, L3MBTL1 (Homo sapiens, UniProt Q9Y468).
T3 sequence (Q9Y468 200-522 isoform Q9Y468-1 limits assumed): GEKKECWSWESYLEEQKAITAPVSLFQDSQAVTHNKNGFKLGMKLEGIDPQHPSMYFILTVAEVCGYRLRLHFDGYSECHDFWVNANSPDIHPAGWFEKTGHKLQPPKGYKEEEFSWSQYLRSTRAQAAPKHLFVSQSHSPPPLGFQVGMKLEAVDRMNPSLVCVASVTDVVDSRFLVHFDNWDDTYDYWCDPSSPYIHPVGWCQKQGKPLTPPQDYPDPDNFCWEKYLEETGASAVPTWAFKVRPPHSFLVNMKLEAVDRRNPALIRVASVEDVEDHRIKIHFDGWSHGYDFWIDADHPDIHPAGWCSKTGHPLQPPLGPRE
Nature of the assay: AlphaScreen histone peptide competition, L3MBTL1. To be noted: sulfonamide series; footnote a of Table 2: no binding by AlphaScreen.

The target of assay [5] is T3, L3MBTL1. Nature of the assay: ITC binding to wt L3MBTL1. Particulars: single experiments, standard deviations from least square curve fitting.

Regarding `O=C(NCCCCCN1CCCC1)c1cncc(Br)c1` [Compound 7], the “L3MBTL3 IC50” value in assay [1] is listed as “weak binding”. The “PHF13 IC50” value in assay [2] is listed as “weak binding”. Further, in assay [3], the “Binding to L3MBTL3 by ITC” value was “Binding was confirmed”. Regarding `O=S(=O)(NCCCCCN1CCOCC1)c1cccc(Br)c1` [Compound 9], in assay [4], the “Binding by AlphaScreen” value was “did not show any activity; also recorded: No Binding ^a”.

Turning to `O=S(=O)(NCCOCCN1CCCC1)c1cccc(Br)c1` [Compound 8], in assay [4], the “Binding by AlphaScreen” value is reported as “did not show any activity; also recorded: No Binding ^a”. With `C[C@H]1CCN(CCCCCNS(=O)(=O)c2cccc(Br)c2)C1` [Compound 12], in assay [5], the “3MBTL1 Kd” value is on record as “No Binding Interaction”.
